Consider 15 compounds from patent US20090197916A1, “SOLUBLE EPOXIDE HYDROLASE INHIBITORS FOR TREATMENT OF METABOLIC SYNDROME AND RELATED DISORDERS” (Arete Therapeutics, Inc, priority 2007, published 2009).

In data set [1] the test system is wild-type mice on high-fat, high-fructose diet (HF) or standard chow (NC). Briefly: Metabolic Syndrome Model 2: diet induced obesity mouse model. To be noted: for weight gain, HF-fed animals / total plasma cholesterol / glucose tolerance (GTT) / statistical significance of attenuated weight gain: HF diet; for weight gain, HF-fed animals: 60 mg/kg twice daily (Losartan 10 mg/kg/day in drinking water); for weight gain, HF-fed animals / total plasma cholesterol / glucose tolerance (GTT): vs vehicle; for total plasma cholesterol: 60 mg/kg twice daily, 4 weeks; for glucose tolerance (GTT): after 4 weeks of dosing 60 mg/kg twice daily; for statistical significance of attenuated weight gain: from second week of dose administration. Format: in vivo. An excerpt: Seven groups of 10 wild-type mice were entered onto the study. Five groups were placed on an ad libitum high-fat, high-fructose diet (HF); two groups were fed ad libitum with standard rodent chow and water (NC). Animals were maintained on the respective diet for the entire 12 weeks of the study. […] Losartan (Cozaar®) is a compound approved by the FDA for the treatment of hypertension, reducing the risk of stroke in a patient with hypertension and left ventricular hypertrophy, and treatment of diabetic nephropathy with an elevated serum […] and proteinuria in patients with type 2 diabetes and a history of hypertension.
Glucose tolerance tests (GTTs) were performed in Week 7 (prior to the start of dosing) and Week 12 (after 4 weeks of dosing). Body weights were recorded semi-weekly throughout the study whereas chow consumption and liquid intake were recorded weekly. Plasma was collected from untreated (Week 7, prior to the start of dosing) and treated (at the end of in-life) animals and submitted for the determination of plasma cholesterol. At the end of the in-life period, animals were sacrificed after terminal bleeds and discarded; no necropsies were performed.

The next data set has as its target T1, sEH (Homo sapiens, UniProt P34913).
T1 sequence (P34913 1-555): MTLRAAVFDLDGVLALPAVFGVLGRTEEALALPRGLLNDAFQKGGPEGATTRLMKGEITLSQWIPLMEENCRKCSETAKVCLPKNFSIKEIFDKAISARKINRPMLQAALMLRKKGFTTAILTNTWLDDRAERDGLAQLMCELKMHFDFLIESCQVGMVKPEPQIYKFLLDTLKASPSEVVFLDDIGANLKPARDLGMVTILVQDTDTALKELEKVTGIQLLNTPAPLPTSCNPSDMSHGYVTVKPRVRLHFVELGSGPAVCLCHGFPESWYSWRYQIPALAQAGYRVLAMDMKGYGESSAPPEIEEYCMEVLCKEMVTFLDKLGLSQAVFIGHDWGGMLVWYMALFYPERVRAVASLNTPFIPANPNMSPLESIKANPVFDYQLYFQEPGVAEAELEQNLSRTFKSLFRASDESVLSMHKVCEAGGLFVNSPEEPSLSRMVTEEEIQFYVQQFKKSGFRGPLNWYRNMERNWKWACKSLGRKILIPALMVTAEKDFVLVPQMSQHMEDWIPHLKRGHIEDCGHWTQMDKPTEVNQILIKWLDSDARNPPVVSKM
As to the kind of experiment: sEH inhibition, fluorescent assay with CMNPC substrate (percent inhibition and IC50). Format: biochemical. To be noted: for IC50: procedure similar to the percent inhibition procedure. The protocol: The substrate for the reaction was:
Therefore, well A2 would refer to a well in the first row and second column of the plate.
In a black 96 well plate, all the wells are filled with 150 μL of buffer A (Buffer A: Bis/Tris HCl, 25 mM, pH 7.0 plus 0.1 mg/mL BSA). DMSO (2 microliters) was added in well A2 and A3, and then was added 2 μL of inhibitor solution in A1 and A4 through A12. […] The plate was incubated for 5 minutes in the plate reader at 30° C. During incubation, the working solution of substrate was prepared by mixing 3.68 mL of buffer A with 266 μL of 0.5 mM substrate solution. At t=0, 30 μL of working substrate solution was added and readings were started ([S]final: 5 μM).

The subject of data set [2] is male C57Bl/6 mice on high-fat, high-fructose diet. Briefly: Metabolic Syndrome Model 1: diet induced obesity mouse model. It is filed as in vivo. The protocol:
A diet induced obesity mouse model was used to evaluate the efficacy of the sEH inhibitor 1-[1-(methylsulfonyl)piperidin-4-yl]-3-(adamant-1-yl)urea (Compound 5) for the treatment of metabolic syndrome and the adverse conditions related thereto.
The study was performed using 7-8 week old male C57Bl/6 mice. The mice were acclimated a minimum of five days prior to the start of study and were housed five per cage in microisolators in a 12:12 light/dark cycle (all work was done in a BioBubble Hood™). Water and food was provided ad libitum.
The mice were provided a high-fat, high-fructose diet for a total of 11 weeks, within the first 5 weeks the animals became obese, insulin resistant, have increased plasma cholesterol and mildly hypertensive. The mice were separated into three groups, each group consisting of 10 mice after the first 5 weeks on the high-fat, high-fructose diet. The mice continued to receive the high-fat, high-fructose diet but also began to receive treatment for the remaining 6 weeks of the study for a total of 11 weeks of study. During the treatment phase, Group 1 was administered vehicle alone, perorally, twice a day for six weeks (control group); group 2 was administered 20 mg/kg of Compound 5, perorally, twice a day for six weeks; group 3 was administered 60 mg/kg Compound 5, perorally, twice a day for six weeks. At intervals of 3 and 5.5 weeks after the beginning of the treatment phase of the study, glucose tolerance tests were administered. At the beginning of the treatment phase and after 5 weeks of dosing, samples were collected for plasma cholesterol measurements. Blood pressure was measured 3 weeks after the start of the treatment phase of the study.
HF diet with 45% fat by calorie (Research Diets, D12451)
High-Fructose (degassed 7up)
Group 2) High-Fat Diet+Compound 5-20 mg/kg p.o. (perorally) b.i.d. (twice a day)
Group 3) High-Fat Diet+Compound 5-60 mg/kg p.o. (perorally) b.i.d. (twice a day)
Throughout duration of the study body weight, food, and fructose consumption was measured twice a week. Blood pressure and heart rate was measured one week.
Mice were randomized on the basis of average Body Weight in each of the three groups (n=10/gp).
GTT—Animals were fasted for 4 hours followed by a glucose load (2 g/kG body wt). The tip (3 mm) of the tail was excised and blood samples were taken for glucose clearance measurements (Glucometer) at T=0, 15, 30, 60, 90, and 120 minutes. This test determines if the animal is has glucose intolerance.
Plasma was analyzed using a lipid and chem panel analysis (Lipid-total cholesterol, HDL, LDL and Triglycerides, FFA).
p.o. (perorally) dosing of Compound 5 at 20 mg/kg and at 60 mg/kg begins b.i.d. twice a day) for […]
Measure blood pressure using a non-invasive CODA 6 occlusion cuff system

As a reminder, the IC50 is the concentration that gives 50% inhibition. Low readings indicate greater potency, high ones weaker potency. Usually % Inhibition stands for the drop in the measured response relative to a control, in per cent.

Consider `CCCCc1nc(Cl)c(CO)n1Cc1ccc(-c2ccccc2-c2nn[nH]n2)cc1` [Losartan, reference compound], for which the “weight gain, HF-fed animals” value in data set [1] is “gained less weight”.

For the compound `CC(=O)N1CCC(NC(=O)Nc2cccc(C(F)(F)F)c2)CC1` [Compound 9, 1-(1-Acetyl-piperidin-4-yl)-3-(3-trifluoromethyl-phenyl)-urea], the IC50 at sEH was determined as 10.1 nM.

At sEH, `O=C(Nc1ccc(C(F)(F)F)cc1)Nc1ccc(S(=O)(=O)c2ccccc2)cc1` [Compound 18, 1-(4-benzenesulfonyl-phenyl)-3-(4-trifluoromethyl-phenyl)-urea] displayed an IC50 of 3.8 nM.

Regarding `CC(C)OC(=O)N1CCC(NC(=O)Nc2ccc(OC(F)(F)F)cc2)CC1` [Compound 15, isopropyl 4-(3-(4-(trifluoromethoxy)phenyl)ureido)piperidine-1-carboxylate], the IC50 on sEH worked out at 2.1 nM. Compared with the last compound, the IC50 is about 1.8-fold lower.

Regarding `CS(=O)(=O)N1CCC(NC(=O)Nc2ccc(C(F)(F)F)cc2)CC1` [Compound 4, 1-[1-(methylsulfonyl)piperidin-4-yl]-3-(4-trifluoromethylphenyl) urea], in data set [1], the “weight gain, HF-fed animals” value is recorded as “gained less weight”; the total plasma cholesterol result is given as “decreases in total plasma cholesterol level, although not statistically significant”; the “glucose tolerance (GTT)” value is on record as “statistically significant improvements in glucose tolerance”.

`O=C(Nc1ccc(C(F)(F)F)cc1)NC1CCN(c2ccc(C(F)(F)F)cn2)CC1` [Compound 14, 1-(4-(trifluoromethyl)-phenyl)-3-(1-(5-(trifluoromethyl)-pyridin-2-yl)piperidin-4-yl)urea]: half-maximal inhibition on sEH (IC50) was put at 7.5 nM. In other words, the single-digit nanomolar range.

For `CC(C)S(=O)(=O)N1CCC(NC(=O)Nc2ccc(OC(F)(F)F)cc2)CC1` [Compound 13, 1-(1-(isopropylsulfonyl)piperidin-4-yl)-3-(4-(trifluoromethoxy)phenyl)urea], half-maximal inhibition against sEH (IC50) was put at 1.6 nM.

In turn, `O=C(Nc1ccc(C(F)(F)F)cc1)Nc1ccc(Oc2ccccc2)nc1` [Compound 16, 1-(6-phenoxypyridin-3-yl)-3-(4-(trifluoromethyl)phenyl)urea] yielded an IC50 against sEH of 7.1 nM.

Consider `O=C(NC1CCCCC1)NC1CCN(C(=O)c2ccccn2)CC1` [Compound 12, 1-cyclohexyl-3-(1-picolinoylpiperidin-4-yl)urea], for which inhibition at sEH was half-maximal at 5.3 nM (IC50).

As to `CC(C)(C)CC(=O)N1CCC(NC(=O)Nc2ccc(C(F)(F)F)cc2)CC1` [Compound 7, 1-(1-(3,3-dimethylbutanoyl)piperidin-4-yl)-3-(4-(trifluoromethyl)phenyl)urea], half-maximal inhibition against sEH (IC50) was put at 0.8 nM. Against the preceding compound, the IC50 is about 6.6-fold lower.

As to `CC(=O)NC1CCC(NC(=O)Nc2ccc(C(F)(F)F)cc2)CC1` (stereo not drawn) [Compound 17, N-(4-(3-(4-(trifluoromethyl)phenyl)ureido)cyclohexyl)acetamide], the half-maximal inhibitory concentration (IC50) against sEH was 6.2 nM. This IC50 is about 7.8-fold higher than that of the compound before.

For `CC(C)OC(=O)N1CCC(NC(=O)Nc2ccc(C(F)(F)F)cc2)CC1` [Compound 11, isopropyl 4-(3-(4-(trifluoro-methyl)phenyl)ureido)-piperidine-1-carboxylate], 0.8 nM corresponded to half-maximal inhibition on sEH (IC50). Compared with the last compound, the IC50 is about 7.8-fold lower.

Consider `CC(=O)N1CCC(NC(=O)Nc2ccc(C(F)(F)F)cc2)CC1` [Compound 3, 1-[1-(acetyl)piperidin-4-yl]-3-(4-trifluoromethylphenyl) urea], for which, in data set [1], the “weight gain, HF-fed animals” value is on record as “gained less weight”; the total plasma cholesterol result was “slight elevation of total cholesterol”; the “glucose tolerance (GTT)” value was “statistically significant improvements in glucose tolerance”; the “statistical significance of attenuated weight gain” value was “statistically significant”.

`O=C(Nc1ccc(C(F)(F)F)cc1)Nc1cccc(C(=O)N2CCOCC2)c1` [Compound 1, 1-[3-(morpholino-4-carbonyl)phenyl]-3-(4-trifluoromethylphenyl) urea]: on sEH (Concentration 50 nM), the “% Inhibition” value is listed as 82%.

On to `CS(=O)(=O)N1CCC(NC(=O)NC23CC4CC(CC(C4)C2)C3)CC1` [Compound 5, 1-[1-(methylsulfonyl)piperidin-4-yl]-3-(adamant-1-yl) urea], for which, in data set [1], the “weight gain, HF-fed animals” value is “gained less weight”; the total plasma cholesterol result is reported as “statistically significant decreases in cholesterol”; the “glucose tolerance (GTT)” value was “statistically significant improvements in glucose tolerance”; the “statistical significance of attenuated weight gain” value is listed as “statistically significant”. Moreover, the “body weights, animals on NC” value in data set [1] (NC diet, Compound 5 60 mg/kg twice daily vs vehicle) was “similar”. Further, in data set [2] (60 mg/kg twice a day, vs vehicle, p<0.01), the cholesterol level result is listed as “statistically lower cholesterol level”. In addition, the blood pressure result in data set [2] (60 mg/kg twice a day, vs vehicle, p<0.05) is “statistically significantly lower blood pressure”. Besides, the heart rate entry in data set [2] (20 and 60 mg/kg b.i.d.) was “did not significantly alter heart rate”. The “systolic and diastolic blood pressure” value in data set [2] (20 and 60 mg/kg b.i.d., 3 weeks of treatment, vs control) is on record as “reduced”. In data set [2] (20 and 60 mg/kg p.o. b.i.d., relative to control group), the “serum glucose in GTT” value was “decrease in serum glucose”. In addition, the “area under the curve for plasma glucose after interperitonial glucose” value in data set [2] (both 20 and 60 mg/kg twice a day, vs vehicle and start of treatment, p<0.01) was “statistically lower area under the curve”. Moreover, the body weight entry in data set [2] (either dose (20 or 60 mg/kg p.o. b.i.d.), vs vehicle) is “stabilization in body weight”. Further, in data set [2] (relative to control group, 5 weeks of dosing), the plasma cholesterol levels result is recorded as “reduced”. Also, the mean blood pressure entry in data set [2] (vs control group) was “similarly reduced”.
